Data reported in ChEMBL document CHEMBL5465560, “Selectivity Literature for EUbOPEN Chemogenomic Library” (2024).
Values belong to the compound of their own block, whether it stands above or below them.

Experiments:
[1] = target: Serine/threonine-protein kinase tousled-like 2 (Homo sapiens) (UniProt Q86UE8); assay: Selectivity interaction (Ambit KINOMEscan and KiNATiv profiling in Jurkat cells) EUB0000090b TLK2; type: cell-based; conditions: at 1 µM
[2] = target: 5'-AMP-activated protein kinase catalytic subunit alpha-1 (Homo sapiens, UniProt Q13131); assay: Selectivity interaction (Kinase panel (Invitrogen)) EUB0000639a PRKAA1; conditions: at 200 nM
[3] = target: T1, Phosphorylase b kinase gamma catalytic chain, liver/testis isoform (Homo sapiens) (UniProt P15735); conditions: at 10 µM
T1 sequence (whole entry): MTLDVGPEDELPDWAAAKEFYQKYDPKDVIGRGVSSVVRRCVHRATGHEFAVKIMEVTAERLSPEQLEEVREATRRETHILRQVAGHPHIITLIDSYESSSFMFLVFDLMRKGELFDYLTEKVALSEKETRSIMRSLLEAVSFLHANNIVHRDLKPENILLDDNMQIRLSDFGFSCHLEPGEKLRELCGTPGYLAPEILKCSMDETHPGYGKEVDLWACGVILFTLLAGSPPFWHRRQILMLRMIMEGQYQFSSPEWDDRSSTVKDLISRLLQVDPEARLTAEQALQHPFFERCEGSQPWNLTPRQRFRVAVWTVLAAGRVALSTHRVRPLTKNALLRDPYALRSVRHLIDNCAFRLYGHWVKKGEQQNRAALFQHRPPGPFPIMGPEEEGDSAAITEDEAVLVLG

[4] = target: Serine/threonine-protein kinase 24 (Homo sapiens) (UniProt Q9Y6E0); assay: Selectivity interaction (KinomeScan (DiscoverX)) EUB0000229b STK24; conditions: at 10 µM
[5] = target: STE20/SPS1-related proline-alanine-rich protein kinase (Homo sapiens) (UniProt Q9UEW8); assay: Selectivity interaction (Kinome Scan (DiscoverX)) EUB0000229b STK39; conditions: at 10 µM
[6] = target: T2, Inhibitor of nuclear factor kappa-B kinase subunit beta (Homo sapiens) (UniProt O14920); assay: Selectivity interaction (KinomeScan (DiscoverX)) EUB0000092b IKBKB; conditions: at 10 µM
T2 sequence (whole entry): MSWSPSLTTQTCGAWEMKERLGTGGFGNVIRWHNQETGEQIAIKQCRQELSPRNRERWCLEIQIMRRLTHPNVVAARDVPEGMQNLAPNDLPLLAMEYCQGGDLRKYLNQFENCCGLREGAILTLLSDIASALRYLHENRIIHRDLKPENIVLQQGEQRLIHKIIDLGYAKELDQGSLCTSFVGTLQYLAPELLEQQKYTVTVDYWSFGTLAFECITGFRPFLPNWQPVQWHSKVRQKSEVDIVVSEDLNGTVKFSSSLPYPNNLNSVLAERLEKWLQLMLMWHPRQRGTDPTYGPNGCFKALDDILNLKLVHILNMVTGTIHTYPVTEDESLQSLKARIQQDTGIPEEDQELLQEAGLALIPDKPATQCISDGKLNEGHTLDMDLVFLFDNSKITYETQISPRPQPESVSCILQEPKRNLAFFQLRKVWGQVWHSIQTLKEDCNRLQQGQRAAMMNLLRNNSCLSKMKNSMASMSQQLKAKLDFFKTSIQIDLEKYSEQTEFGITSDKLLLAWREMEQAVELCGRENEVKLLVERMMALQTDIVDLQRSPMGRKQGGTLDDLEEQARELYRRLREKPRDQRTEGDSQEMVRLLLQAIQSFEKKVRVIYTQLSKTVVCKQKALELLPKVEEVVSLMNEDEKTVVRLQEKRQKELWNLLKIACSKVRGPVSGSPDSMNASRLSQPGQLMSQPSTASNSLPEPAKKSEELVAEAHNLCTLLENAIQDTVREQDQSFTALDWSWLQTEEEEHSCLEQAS

[7] = target: T3, Mitogen-activated protein kinase kinase kinase 19 (Homo sapiens) (UniProt Q56UN5); assay: Selectivity interaction (KinomeScan (DiscoverX)) EUB0000655a MAP3K19; conditions: at 10 µM
T3 sequence (whole entry): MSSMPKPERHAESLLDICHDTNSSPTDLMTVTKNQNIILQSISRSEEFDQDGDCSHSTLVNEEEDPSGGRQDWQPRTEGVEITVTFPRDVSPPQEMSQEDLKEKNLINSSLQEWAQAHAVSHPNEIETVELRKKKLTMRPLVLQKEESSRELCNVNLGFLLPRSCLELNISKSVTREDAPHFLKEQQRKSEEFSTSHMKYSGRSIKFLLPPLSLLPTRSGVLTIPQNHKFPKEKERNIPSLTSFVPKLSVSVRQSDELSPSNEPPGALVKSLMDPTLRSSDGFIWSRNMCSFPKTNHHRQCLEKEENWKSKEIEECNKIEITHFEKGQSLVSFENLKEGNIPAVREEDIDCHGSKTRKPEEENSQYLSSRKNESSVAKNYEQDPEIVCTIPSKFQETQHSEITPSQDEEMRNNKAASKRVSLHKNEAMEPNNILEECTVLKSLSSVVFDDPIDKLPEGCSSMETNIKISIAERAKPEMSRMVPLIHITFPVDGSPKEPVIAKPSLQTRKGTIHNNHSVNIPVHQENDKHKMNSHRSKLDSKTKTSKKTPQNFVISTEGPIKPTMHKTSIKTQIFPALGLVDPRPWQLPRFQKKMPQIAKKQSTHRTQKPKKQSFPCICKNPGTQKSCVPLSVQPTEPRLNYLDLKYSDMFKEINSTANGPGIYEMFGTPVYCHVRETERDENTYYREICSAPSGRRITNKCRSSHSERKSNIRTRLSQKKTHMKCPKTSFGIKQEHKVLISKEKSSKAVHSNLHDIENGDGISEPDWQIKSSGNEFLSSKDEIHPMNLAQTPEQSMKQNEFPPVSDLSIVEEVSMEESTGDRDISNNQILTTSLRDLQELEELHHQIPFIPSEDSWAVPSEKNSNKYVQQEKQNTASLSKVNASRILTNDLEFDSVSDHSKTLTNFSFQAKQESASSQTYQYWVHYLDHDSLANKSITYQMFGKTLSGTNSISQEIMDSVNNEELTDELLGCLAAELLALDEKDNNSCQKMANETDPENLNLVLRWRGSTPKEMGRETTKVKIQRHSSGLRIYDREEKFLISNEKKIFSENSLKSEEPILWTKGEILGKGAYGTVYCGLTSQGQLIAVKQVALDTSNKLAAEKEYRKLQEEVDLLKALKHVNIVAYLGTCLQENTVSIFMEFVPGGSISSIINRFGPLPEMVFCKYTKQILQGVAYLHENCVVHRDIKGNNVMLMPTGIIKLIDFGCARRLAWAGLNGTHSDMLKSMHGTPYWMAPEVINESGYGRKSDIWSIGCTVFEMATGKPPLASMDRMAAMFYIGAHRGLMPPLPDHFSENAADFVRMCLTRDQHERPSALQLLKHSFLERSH

Chain of 5'-AMP-activated protein kinase catalytic subunit alpha-1 (Q13131 whole entry, looked up, canonical isoform): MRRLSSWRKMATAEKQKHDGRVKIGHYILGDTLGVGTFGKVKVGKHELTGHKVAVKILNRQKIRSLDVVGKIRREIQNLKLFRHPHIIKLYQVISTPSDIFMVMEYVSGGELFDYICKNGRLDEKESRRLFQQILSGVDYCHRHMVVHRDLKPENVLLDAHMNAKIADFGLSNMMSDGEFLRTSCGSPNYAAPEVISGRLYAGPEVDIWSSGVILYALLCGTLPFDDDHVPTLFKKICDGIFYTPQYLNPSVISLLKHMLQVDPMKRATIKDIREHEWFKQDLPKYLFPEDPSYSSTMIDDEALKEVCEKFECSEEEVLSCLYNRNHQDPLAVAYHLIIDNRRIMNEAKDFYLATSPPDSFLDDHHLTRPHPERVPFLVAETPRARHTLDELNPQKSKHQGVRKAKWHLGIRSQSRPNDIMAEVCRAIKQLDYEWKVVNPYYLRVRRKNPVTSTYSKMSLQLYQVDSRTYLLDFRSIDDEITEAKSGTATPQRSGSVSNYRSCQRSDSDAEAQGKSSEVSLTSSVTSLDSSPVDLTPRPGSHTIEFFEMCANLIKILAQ
Chain of Serine/threonine-protein kinase 24 (Homo sapiens) (Q9Y6E0 whole entry, looked up): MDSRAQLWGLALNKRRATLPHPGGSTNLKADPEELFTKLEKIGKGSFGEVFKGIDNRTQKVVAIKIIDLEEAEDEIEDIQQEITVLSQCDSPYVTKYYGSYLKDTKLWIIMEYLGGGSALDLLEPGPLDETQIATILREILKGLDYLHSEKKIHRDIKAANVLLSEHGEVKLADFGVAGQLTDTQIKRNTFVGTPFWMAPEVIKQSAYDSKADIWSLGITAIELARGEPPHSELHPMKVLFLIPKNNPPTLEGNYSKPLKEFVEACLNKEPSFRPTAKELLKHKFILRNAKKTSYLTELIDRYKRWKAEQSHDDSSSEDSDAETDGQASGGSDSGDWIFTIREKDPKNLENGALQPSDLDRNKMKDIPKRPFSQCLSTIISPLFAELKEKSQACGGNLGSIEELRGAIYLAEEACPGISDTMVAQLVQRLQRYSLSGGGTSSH
Chain of Serine/threonine-protein kinase tousled-like 2 (Homo sapiens) (Q86UE8 whole entry, looked up): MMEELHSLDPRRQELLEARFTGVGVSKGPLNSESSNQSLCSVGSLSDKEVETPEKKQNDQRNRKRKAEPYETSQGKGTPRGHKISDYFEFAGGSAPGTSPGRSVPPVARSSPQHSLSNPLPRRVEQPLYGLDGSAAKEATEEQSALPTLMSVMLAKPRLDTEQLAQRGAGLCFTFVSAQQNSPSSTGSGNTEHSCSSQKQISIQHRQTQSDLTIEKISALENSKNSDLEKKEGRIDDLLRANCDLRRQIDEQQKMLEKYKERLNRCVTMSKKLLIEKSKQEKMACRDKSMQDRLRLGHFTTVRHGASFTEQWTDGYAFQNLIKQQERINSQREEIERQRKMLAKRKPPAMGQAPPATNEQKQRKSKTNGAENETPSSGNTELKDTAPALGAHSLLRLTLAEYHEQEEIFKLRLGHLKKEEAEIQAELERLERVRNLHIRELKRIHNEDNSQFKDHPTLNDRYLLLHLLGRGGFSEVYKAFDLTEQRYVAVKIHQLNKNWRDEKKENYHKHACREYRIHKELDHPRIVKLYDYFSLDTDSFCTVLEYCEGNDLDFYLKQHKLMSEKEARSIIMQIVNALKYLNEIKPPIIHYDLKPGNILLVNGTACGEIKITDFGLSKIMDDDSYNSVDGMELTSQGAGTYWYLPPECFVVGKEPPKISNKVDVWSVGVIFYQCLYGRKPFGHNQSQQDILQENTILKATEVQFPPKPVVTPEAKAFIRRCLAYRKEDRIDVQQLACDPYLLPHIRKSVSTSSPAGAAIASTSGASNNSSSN

SMILES: CN(C)C/C=C/C(=O)Nc1ccc(C(=O)N2CCCC(Nc3ncc(Cl)c(-c4c[nH]c5ccccc45)n3)C2)cc1 (configuration not stated)
% of control [1]: 93%

% of inhibition [2]: 13.1%
SMILES: CC[C@@H]1[C@H](F)C(=O)N[C@@H]1COc1nccc2cc(C(N)=O)c(OC)cc12 [ZIMLOVISERTIB]

% of control [3]: 100%
SMILES: CCN(CC)CCCCNc1ncc2cc(-c3cc(OC)cc(OC)c3)c(NC(=O)NC(C)(C)C)nc2n1

SMILES: COc1cc(N(C)c2ccnc3ccc(C(F)(F)F)cc23)cc(OC)c1OC
% binding [4]: 95%
% binding [5]: 98%

SMILES: CCC(=O)N1CCN(c2ccc(-n3c(=O)ccc4cnc5ccc(-c6cnc7ccccc7c6)cc5c43)cc2C(F)(F)F)CC1
% of control [6]: 61%

SMILES: CN(C)CCOc1ccc(-c2nc(-c3ccncc3)c(-c3ccc4c(c3)CC/C4=N\O)[nH]2)cc1
% of control [7]: 30%
